Reference: patent publication US10908171B2, “Additive channels” (Emulate Inc., priority 2016, dated 2021)

Test system: platelets
Assay: Platelet activation quality control by p-selectin expression
Type: cell-based, human
Details: control blood
Method: To test for a thrombic event, blood was collected from 4 donors, the as blood alone or blood treated with hu5C8 alone (240 μg/ml), sCD40L (10 ng/ml) alone or with combined hu5C8/sCD40L was incubated for 20 minutes at room temperature. Each sample was further incubated for 5 minutes with fluorescent labels for platelets and fibrinogen. As a standard quality control, the control blood was tested for platelet activation using p-selection expression. We confirmed that platelets in control blood were not activated but upon activation by ADP, over 90% of platelet was positive for p-selectin.

## Nc1ncnc2c1ncn2[C@@H]1O[C@H](COP(=O)(O)OP(=O)(O)O)[C@@H](O)[C@H]1O [ADP]
  platelets positive for p-selectin upon activation: over 90%
